Reference: patent publication US11447504B2, “Macrocyclic chlorine substituted indole derivatives” (Bayer Aktiengesellschaft, priority 2017, dated 2022)
Structures can show the parent of a compound that is named as a salt. Where two headings read alike, the source gives them in different places.

Assays:
[1] = from CCOC(=O)c1[nH]c2c(-c3c(N(C)CCCCCO)nn(C)c3C)c(Cl)ccc2c1CCCOc1cccc2cc(F)ccc12, amine bond, di-tert-butyl azodicarboxylate/PPh3, THF, 15.7 mM, 64.0 h
SUDHL5 [2] = test: Antiproliferation assay 7, SUDHL5; type: cell-based; conditions: SUDHL5 cells, CellTiter-Glo, read-out: Antiproli SUDHL5 IC50 (median)
In short: (§1)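 Proliferation over 72 h at 37° C was assessed by luminescent cell viability reagent, referenced to a day 0 plate.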

SK-BR-3 = test: Antiproliferation assay 7, SK-BR-3; type: cell-based; conditions: SK-BR-3 cells, 72 hours, CellTiter-Glo, read-out: Antiproli SK-BR-3 IC50 median
In short: as §1

NCI-H23 = test: Antiproliferation assay 7, NCI-H23; type: cell-based; conditions: NCI-H23 cells, 72 hours, CellTiter-Glo, read-out: Antiproli NCI-H23 IC50 median
Procedure: (§2) Assessment of the Anti-Proliferative Effect of Compounds in Different Cell Lines
(§3) The impact of compounds on the proliferation of different cell lines was assessed using the CellTiter-Glo® Luminescent Cell Viability reagent from Promega (G7573).
(§4) In parallel, cells were plated in a reference (day 0) plate for time zero determination.
(§5) Rim wells were excluded. The cells were incubated for 72 hours in a humidified incubator at 37° C. The day 0 plate was measured by adding 30 μL/well of CTG solution (CellTiter-Glo® Luminescent Cell Viability reagent, Promega G7573) to time zero wells in the reference plate followed by a 10 minutes incubation and luminescence reading at 0.1 ms. using the PHERAstar FS microplate reader (BMG Labtech).
(§6) After 72 hours incubation, the treated plates were measured in the same way as the day 0 plate mentioned above.

SUDHL10 [3] = test: Antiproliferation assay 7, SUDHL10; type: cell-based; conditions: SUDHL10 cells, CellTiter-Glo, read-out: Antiproli SUDHL10 IC50 (median)
In short: as §1

SUDHL10 [4] = test: Induction of cytotoxicity (Assay 6), SUDHL10
HMC-1-8 = test: Antiproliferation assay 7, HMC-1-8; type: cell-based; conditions: HMC-1-8 cells, CellTiter-Glo, read-out: Antiproli HMC-1-8 IC50 median
In short: as §1

MV-4-11 = test: Antiproliferation assay 7, MV-4-11; type: cell-based; conditions: MV-4-11 cells, CellTiter-Glo, read-out: Antiproli MV-4-11 IC50 median
In short: as §1

A2058 = test: Antiproliferation assay 7, A2058; type: cell-based; conditions: A2058 cells, 72 hours, CellTiter-Glo, read-out: Antiproli A2058 IC50 median
Procedure: as §2, §3, §4, §5, §6

SUDHL5 [5] = test: Induction of caspase-3/7 activity (Assay 4), SUDHL5; type: cell-based; conditions: SUDHL5 cells
In short: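 DLBCL cells treated with compounds for 3 hours at 37° C. Caspase-3/7 activity measured by Caspase-Glo 3/7 luminescence, with medium-only background subtracted.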

SUDHL10 [6] = test: Induction of caspase-3/7 activity (Assay 4), SUDHL10; type: cell-based; conditions: SUDHL10 cells
In short: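 Luminescent Caspase-Glo 3/7 read-out after a 3 h, 37 °C compound exposure of the DLBCL line SUDHL10. Values are background-corrected using medium-only wells.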

AMO-1 = test: Antiproliferation assay 7, AMO-1; type: cell-based; conditions: AMO-1 cells, CellTiter-Glo, read-out: Antiproli AMO-1 IC50 median
In short: as §1

SUDHL10 [7] = system: SUDHL10
SUDHL5 [8] = system: SUDHL5
SNU-389 = test: Antiproliferation assay 7, SNU-389; type: cell-based; conditions: SNU-389 cells, 72 hours, CellTiter-Glo; read-out: Antiproli SNU-389 IC50 median
Procedure: as §2, §3, §4, §5, §6

SUDHL5 [9] = test: Induction of cytotoxicity (Assay 6), SUDHL5
KYSE-180 = test: Antiproliferation assay 7, KYSE-180; type: cell-based; conditions: Homo sapiens; KYSE-180 cells, 72 hours, CellTiter-Glo; read-out: Antiproli KYSE-180 IC50 median
Procedure: as §2, §3, §4, §5, §6

T47D = test: Antiproliferation assay 7, T47D; type: cell-based; conditions: T47D cells, 72 hours, CellTiter-Glo; read-out: Antiproli T47D IC50 median
Procedure: as §2, §3, §4, §5, §6

[10] = Homo sapiens, SU-DHL10, 5 h, read-out: Cytotox SUDHL10 IC50 (median), SUDHL10 cells, 5 hours, CellTiter-Glo
[11] = Homo sapiens, SU-DHL-5, 3 h, Caspase-Glo 3/7, read-out: Caspase SUDHL5 EC50 (median)
[12] = Homo sapiens, SU-DHL10, 3 h, Caspase-Glo 3/7, read-out: Caspase SUDHL10 EC50 (median)
[13] = 3 hours, Caspase-Glo 3/7, read-out: Caspase SUDHL5 EC50 (median)
[14] = 3 hours, Caspase-Glo 3/7, read-out: Caspase SUDHL10 EC50 (median)

| IC50 (SK-BR-3; Homo sapiens) | IC50 (NCI-H23; Homo sapiens) | IC50 (MV-4-11; Homo sapiens, MV4-11, 72 h) | SMILES | IC50 (SUDHL5 [2]; Homo sapiens, SU-DHL-5, 72 h) | IC50 (SUDHL10 [3]; Homo sapiens, SU-DHL10, 72 h) | IC50 (SUDHL10 [4]; [10]) | IC50 (HMC-1-8; 72 h) | IC50 (A2058; Homo sapiens) | EC50 (SUDHL5 [5]; [11]) | EC50 (SUDHL10 [6]; [12]) | IC50 (AMO-1; Homo sapiens, AMO1, 72 h) | IC50 (SUDHL5 [2]; 72 hours) | IC50 (HMC-1-8; 72 hours) | IC50 (MV-4-11; 72 hours) | IC50 (A2058) | EC50 (SUDHL5 [5]; [13]) | EC50 (SUDHL10 [6]; [14]) | IC50 (AMO-1; 72 hours) | IC50 (SUDHL10 [3]; 72 hours) | other results |
| --- | --- | --- | --- | --- | --- | --- | --- | --- | --- | --- | --- | --- | --- | --- | --- | --- | --- | --- | --- | --- |
|  |  |  | CCOC(=O)c1c(CCCOc2cccc3cc(F)ccc23)c2ccc(Cl)c3c2n1CCCCCN(C)c1nn(C)c(C)c1-3 |  |  |  |  |  |  |  |  |  |  |  |  |  |  |  |  | ring closure, yield of all isomers [1]: 44.8% |
| 8.27 µM | 14.6 µM | 1.61 µM | Cc1nn(C)c2c1-c1c(Cl)ccc3c(CCCOc4cccc5ccccc45)c(C(=O)O)n(c13)CCCCOC2 (racemic) [Example 2, rac-4-chloro-1,3-dimethyl-7-[3-(naphthalen-1-yloxy)propyl]-1,10,11,12,13,15-hexahydropyrazolo[4′,3′:9,10][1,6]oxazacycloundecino[8,7,6-hi]indole-8-carboxylic Acid] | 2.8 µM | 2.4 µM | 3 µM | 15.3 µM | > 30 µM | 0.95 µM | 3.8 µM | 4.86 µM |  |  |  |  |  |  |  |  |  |
|  |  |  | Cc1c2c(nn1C)COCCCCn1c(C(=O)O)c(CCCOc3cccc4ccccc34)c3ccc(Cl)c-2c31 (racemic) [Example 25, (rac)-4-chloro-2,3-dimethyl-7-[3-(naphthalen-1-yloxy)propyl]-2,10,11,12,13,15-hexahydropyrazolo[4′,3′:9,10][1,6]oxazacycloundecino[8,7,6-hi]indole-8-carboxylic Acid] |  |  |  |  |  |  |  |  | 0.56 µM | 6.48 µM | 2.78 µM | 21.9 µM | 0.39 µM | 1.2 µM | 1.31 µM |  | IC50 (SK-BR-3): 12.9 µM; IC50 (NCI-H23): 6.01 µM; IC50 (SUDHL10 [7]): 0.93 µM; IC50 (SUDHL5 [8]): 0.53 µM |
| 7.37 µM | 6.12 µM | 0.766 µM | Cc1nn(C)c2c1-c1c(Cl)ccc3c(CCCOc4cccc5ccccc45)c(C(=O)O)n(c13)CCCCOC2 (single isomer, unassigned; enantiomer 1) [Example 3, 4-chloro-1,3-dimethyl-7-[3-(naphthalen-1-yloxy)propyl]-1,10,11,12,13,15-hexahydropyrazolo[4′,3′:9,10][1,6]oxazacycloundecino[8,7,6-hi]indole-8-carboxylic Acid (Enantiomer 1)] |  |  |  | 8.28 µM | > 30 µM |  |  | 2.51 µM |  |  |  |  |  |  |  | 1.7 µM | IC50 (SNU-389): 20.6 µM |
|  |  |  | Cc1c2c(nn1C)COCCCCn1c(C(=O)O)c(CCCOc3cccc4cc(F)ccc34)c3ccc(Cl)c-2c31 (single isomer, unassigned; enantiomer 1) [Example 15, (+)-4-chloro-7-{3-[(6-fluoronaphthalen-1-yl)oxy]propyl}-2,3-dimethyl-2,10,11,12,13,15-hexahydropyrazolo[4′,3′:9,10][1,6]oxazacycloundecino[8,7,6-hi]indole-8-carboxylic acid-N-ethylethanamine Salt (Enantiomer 1)] |  |  |  |  |  |  |  |  | 0.19 µM | 1.36 µM | 0.461 µM | 5.86 µM | 0.15 µM | 0.15 µM | 0.53 µM | 0.2 µM | IC50 (SUDHL5 [9]; read-out: Cytotox SUDHL5 IC50 (median), SUDHL5 cells, 5 hours, CellTiter-Glo): 0.14 µM; IC50 (T47D): 11.9 µM; IC50 (SUDHL10 [4]; read-out: Cytotox SUDHL10 IC50 (median), SUDHL10 cells, 5 hours, CellTiter-Glo): 0.23 µM |

| SMILES | IC50 (SK-BR-3; Homo sapiens) | IC50 (NCI-H23; Homo sapiens) | IC50 (MV-4-11; Homo sapiens, MV4-11, 72 h) | IC50 (SUDHL5 [2]; Homo sapiens, SU-DHL-5, 72 h) | IC50 (SUDHL10 [3]; Homo sapiens, SU-DHL10, 72 h) | IC50 (SUDHL10 [4]; [10]) | IC50 (HMC-1-8; 72 h) | IC50 (A2058; Homo sapiens) | EC50 (SUDHL5 [5]; [11]) | EC50 (SUDHL10 [6]; [12]) | IC50 (AMO-1; Homo sapiens, AMO1, 72 h) | IC50 (SUDHL5 [2]; 72 hours) | IC50 (HMC-1-8; 72 hours) | IC50 (MV-4-11; 72 hours) | IC50 (A2058) | EC50 (SUDHL5 [5]; [13]) | EC50 (SUDHL10 [6]; [14]) | IC50 (AMO-1; 72 hours) | IC50 (SUDHL10 [3]; 72 hours) | other results |
| --- | --- | --- | --- | --- | --- | --- | --- | --- | --- | --- | --- | --- | --- | --- | --- | --- | --- | --- | --- | --- |
| Cc1c2c(nn1C)CN(C)CCCCn1c(C(=O)O)c(CCCOc3cccc4ccccc34)c3ccc(Cl)c-2c31 (single isomer, unassigned; enantiomer 1) [Example 12, (+)-4-chloro-2,3,14-trimethyl-7-[3-(naphthalen-1-yloxy)propyl]-10,11,12,13,14,15-hexahydro-2H-pyrazolo[3′,4′:8,9][1,6]diazacycloundecino[10,11,1-hi]indole-8-carboxylic acid-N-ethylethanamine Salt (Enantiomer 1)] | 0.667 µM |  | 0.441 µM | 0.17 µM | 0.14 µM | 0.14 µM | 1.58 µM | 4.83 µM | 0.064 µM | 0.097 µM | 0.335 µM |  |  |  |  |  |  |  |  | IC50 (SUDHL5 [9]; Homo sapiens, SU-DHL-5, 5 h, read-out: Cytotox SUDHL5 IC50 (median), SUDHL5 cells, 5 hours, CellTiter-Glo): 0.083 µM; IC50 (KYSE-180): 3.79 µM |
